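48-hour exposure; five concentrations; linearly interpolated endpoints. At the GI50, growth is halved. Definition used: TGI = concentration required for complete inhibition of growth.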
What was measured:
Test in all cases: NCI anticancer screen, dose series, 48 h
[1] = test system: NCI-H460 lung
[2] = test system: MDA-N
[3] = test system: SNB-75 CNS
[4] = test system: EKVX NSCLC
[5] = test system: A498 renal
[6] = test system: UACC-62 melanoma
[7] = test system: HS 578T breast
[8] = test system: SF-268 CNS
[9] = test system: OVCAR-3 ovarian
[10] = test system: MDA-MB-435
[11] = test system: SR leukemia
[12] = test system: HOP-62 NSCLC
[13] = test system: RXF 393 renal
[14] = test system: HOP-92 NSCLC
[15] = test system: MALME-3M melanoma
[16] = test system: CCRF-CEM leukemia
[17] = test system: NCI/ADR-RES ovarian
[18] = test system: OVCAR-4 ovarian
[19] = test system: 786-0 renal
[20] = test system: TK-10 renal
[21] = test system: DU-145 prostate
[22] = test system: SK-OV-3 ovarian
[23] = test system: COLO 205 colon
[24] = test system: PC-3 prostate
[25] = test system: A549 NSCLC
[26] = test system: KM12 colon
[27] = test system: HL-60(TB) leukemia
[28] = test system: MOLT-4 leukemia
[29] = test system: HCT-116 colon
[30] = test system: SK-MEL-28 melanoma
[31] = test system: MDA-MB-231 breast
[32] = test system: CAKI-1 renal
[33] = test system: UACC-257 melanoma
[34] = test system: MCF7 breast
[35] = test system: LOX IMVI melanoma
[36] = test system: NCI-H226 lung
[37] = test system: SW-620 colon
[38] = test system: M14 melanoma
[39] = test system: SNB-19 CNS
[40] = test system: T-47D breast
[41] = test system: SN12C renal
[42] = test system: RPMI-8226 leukemia
[43] = test system: ACHN renal
[44] = test system: K-562 leukemia
[45] = test system: HT29 colon
[46] = test system: SF-539 CNS
[47] = test system: IGROV1 ovarian
[48] = test system: SK-MEL-5 melanoma
[49] = test system: OVCAR-8 ovarian
[50] = test system: UO-31 renal
[51] = test system: NCI-H23 lung
[52] = test system: SF-295 CNS
[53] = test system: OVCAR-5 ovarian
[54] = test system: NCI-H522 lung
[55] = test system: HCT-15 colon
[56] = test system: BT-549 breast
[57] = test system: HCC-2998 colon
[58] = test system: U251 CNS
[59] = test system: SK-MEL-2 melanoma

Molecule `Cc1ccc(S(=O)(=O)N/N=C2\CC(C)OC3=C2CCCCCC3)cc1` (stereo not drawn) has a TGI [1] greater than 100 µM, a TGI [2] greater than 100 µM and a TGI [3] of 52.4 µM. The TGI [4] was 30.4 µM, the TGI [5] was 29.7 µM and the TGI [6] was 30.6 µM. The TGI [7] was 47 µM, the TGI [8] was 38.4 µM and the TGI [9] was 36 µM. The TGI [10] was 34.6 µM, the TGI [11] was 60.4 µM and the TGI [12] was 35.1 µM. The TGI [13] was 32.4 µM, the TGI [14] was 36.7 µM and the TGI [15] was 39.5 µM. The TGI [16] was greater than 100 µM, the TGI [17] was 44.7 µM and the TGI [18] was 35.6 µM. The TGI [19] was 32.3 µM, the TGI [20] was 37.2 µM and the TGI [21] was 37.6 µM. It also gave a TGI [22] of 62.8 µM, a TGI [23] of 37.1 µM and a TGI [24] of 38.9 µM. For the same molecule, the TGI [25] was 34.4 µM, the TGI [26] was 37.4 µM and the TGI [27] was 54.6 µM. The TGI [28] was 55.9 µM, the TGI [29] was 30.4 µM and the TGI [30] was 39.3 µM. It also gave a TGI [31] of 39.4 µM, a TGI [32] of 44.6 µM and a TGI [33] of 36.6 µM. The TGI [34] was 38.2 µM, the TGI [35] was 33.7 µM and the TGI [36] was 39 µM. For the same molecule, the TGI [37] was 36.4 µM, the TGI [38] was 36.2 µM and the TGI [39] was 44.1 µM. It also gave a TGI [40] greater than 100 µM, a TGI [41] of 34.4 µM and a TGI [42] of 82.5 µM. For the same molecule, the TGI [43] was 32.8 µM, the TGI [44] was greater than 100 µM and the TGI [45] was 34.9 µM. The TGI [46] was 38.9 µM, the TGI [47] was 38.2 µM and the TGI [48] was 31.9 µM. For the same molecule, the TGI [49] was 45.2 µM, the TGI [50] was 31.2 µM and the TGI [51] was 41.6 µM. It also gave a TGI [52] of 35.9 µM and a TGI [53] of 37.8 µM.
Work on `COc1ccc2nc3cc(Cl)ccc3c(Nc3cc(C(C)C)c(O)cc3C)c2c1` yielded a GI50 [1] of 1.71 µM, a TGI [1] of 3.45 µM and a GI50 [3] of 2.16 µM. The TGI [3] was 7.61 µM, the GI50 [4] was 2.22 µM and the TGI [4] was 7.75 µM. For the same molecule, the GI50 [5] was 2.05 µM, the TGI [5] was 6.58 µM and the GI50 [6] was 1.72 µM. It also gave a TGI [6] of 3.5 µM, a GI50 [7] of 1.61 µM and a TGI [7] of 3.4 µM. It also gave a GI50 [8] of 2.35 µM, a TGI [8] of 6.86 µM and a GI50 [9] of 1.69 µM. It also gave a TGI [9] of 3.26 µM, a GI50 [10] of 1.8 µM and a TGI [10] of 4.48 µM. For the same molecule, the GI50 [11] was 0.703 µM, the TGI [11] was 12 µM and the GI50 [12] was 1.91 µM. For the same molecule, the TGI [12] was 3.48 µM, the GI50 [13] was 1.28 µM and the TGI [13] was 2.9 µM. For the same molecule, the GI50 [14] was 1.16 µM, the TGI [14] was 3.11 µM and the GI50 [15] was 1.79 µM. It also gave a TGI [15] of 4.4 µM, a GI50 [16] of 2.08 µM and a TGI [16] of 6.63 µM. For the same molecule, the GI50 [17] was 2.76 µM, the TGI [17] was 8.01 µM and the GI50 [54] was 1.79 µM. The TGI [54] was 3.65 µM, the GI50 [18] was 2.5 µM and the TGI [18] was 9.46 µM. It also gave a GI50 [19] of 1.64 µM, a TGI [19] of 3.05 µM and a GI50 [20] of 1.75 µM. For the same molecule, the TGI [20] was 6.65 µM, the GI50 [21] was 2.48 µM and the TGI [21] was 6.97 µM. It also gave a GI50 [22] of 2.39 µM, a TGI [22] of 6.88 µM and a GI50 [23] of 1.81 µM. For the same molecule, the TGI [23] was 3.64 µM, the GI50 [55] was 1.7 µM and the TGI [55] was 3.62 µM. For the same molecule, the GI50 [56] was 0.588 µM, the TGI [56] was 2.89 µM and the GI50 [24] was 1.7 µM. The TGI [24] was 4.79 µM, the GI50 [25] was 2.26 µM and the TGI [25] was 6.98 µM. For the same molecule, the GI50 [26] was 2.2 µM, the TGI [26] was 4.67 µM and the GI50 [27] was 1.31 µM. It also gave a GI50 [28] of 1.38 µM, a TGI [28] of 4.36 µM and a GI50 [29] of 1.59 µM. The TGI [29] was 2.95 µM, the GI50 [30] was 1.91 µM and the TGI [30] was 4.05 µM. The GI50 [31] was 1.82 µM, the TGI [31] was 3.97 µM and the GI50 [57] was 2.22 µM. It also gave a TGI [57] of 5.58 µM, a GI50 [32] of 2.1 µM and a TGI [32] of 5.42 µM. It also gave a GI50 [33] of 1.35 µM, a TGI [33] of 3.07 µM and a GI50 [34] of 1.66 µM. For the same molecule, the TGI [34] was 3.96 µM, the GI50 [35] was 1.79 µM and the TGI [35] was 3.3 µM. For the same molecule, the GI50 [36] was 2.23 µM, the TGI [36] was 6.64 µM and the GI50 [37] was 1.77 µM. For the same molecule, the TGI [37] was 3.37 µM, the GI50 [38] was 1.74 µM and the TGI [38] was 3.31 µM. For the same molecule, the GI50 [39] was 2.97 µM, the TGI [39] was 12.7 µM and the GI50 [40] was 1.92 µM. It also gave a TGI [40] of 4.68 µM, a GI50 [41] of 2.55 µM and a TGI [41] of 7.42 µM. It also gave a GI50 [42] of 0.663 µM, a TGI [42] of 2.68 µM and a GI50 [43] of 2.22 µM. It also gave a TGI [43] of 5.08 µM, a GI50 [44] of 2.02 µM and a TGI [44] greater than 100 µM. For the same molecule, the GI50 [45] was 2.31 µM, the TGI [45] was 6.07 µM and the GI50 [46] was 1.81 µM. It also gave a TGI [46] of 3.61 µM, a GI50 [47] of 1.55 µM and a TGI [47] of 3.35 µM. For the same molecule, the GI50 [48] was 1.61 µM, the TGI [48] was 3.1 µM and the GI50 [49] was 2.06 µM. It also gave a TGI [49] of 4.47 µM, a GI50 [50] of 1.49 µM and a TGI [50] of 2.98 µM. It also gave a GI50 [51] of 2.2 µM, a TGI [51] of 6.02 µM and a GI50 [52] of 1.36 µM. For the same molecule, the TGI [52] was 3.01 µM, the GI50 [58] was 1.79 µM and the TGI [58] was 3.53 µM. For the same molecule, the GI50 [53] was 3.03 µM, the TGI [53] was 9.48 µM and the GI50 [59] was 1.85 µM. The TGI [59] was 3.75 µM.
`O=C1N(CN2CCOCC2)CN(CN2CCOCC2)C(=O)N1Cc1ccc(CN2C(=O)N(CN3CCOCC3)CN(CN3CCOCC3)C2=O)cc1` was tested, and the TGI [1] was greater than 100 µM, the TGI [2] was greater than 100 µM and the TGI [3] was greater than 100 µM. It also gave a TGI [4] greater than 100 µM, a TGI [5] greater than 100 µM and a TGI [6] of 85.4 µM. It also gave a TGI [7] greater than 100 µM, a TGI [8] greater than 100 µM and a TGI [9] greater than 100 µM. It also gave a TGI [10] greater than 100 µM, a TGI [11] greater than 100 µM and a TGI [12] greater than 100 µM. The TGI [14] was greater than 100 µM, the TGI [16] was greater than 100 µM and the TGI [17] was greater than 100 µM. It also gave a TGI [54] greater than 100 µM, a TGI [18] greater than 100 µM and a TGI [19] greater than 100 µM. For the same molecule, the TGI [20] was greater than 100 µM, the TGI [21] was greater than 100 µM and the TGI [22] was greater than 100 µM. It also gave a TGI [23] greater than 100 µM, a TGI [55] greater than 100 µM and a TGI [24] greater than 100 µM. For the same molecule, the TGI [25] was greater than 100 µM, the TGI [26] was greater than 100 µM and the TGI [27] was greater than 100 µM. For the same molecule, the TGI [28] was greater than 100 µM, the TGI [29] was greater than 100 µM and the TGI [30] was greater than 100 µM. It also gave a TGI [31] greater than 100 µM, a TGI [57] greater than 100 µM and a TGI [32] greater than 100 µM. For the same molecule, the TGI [33] was greater than 100 µM, the TGI [34] was greater than 100 µM and the TGI [35] was 76.4 µM. It also gave a TGI [36] greater than 100 µM, a TGI [37] greater than 100 µM and a TGI [38] greater than 100 µM. It also gave a TGI [39] greater than 100 µM, a TGI [40] greater than 100 µM and a TGI [41] greater than 100 µM. For the same molecule, the TGI [42] was 89.5 µM, the TGI [43] was greater than 100 µM and the TGI [45] was greater than 100 µM. For the same molecule, the TGI [46] was greater than 100 µM, the TGI [47] was greater than 100 µM and the TGI [48] was greater than 100 µM. The TGI [49] was greater than 100 µM, the TGI [50] was greater than 100 µM and the TGI [51] was greater than 100 µM. The TGI [52] was greater than 100 µM, the TGI [58] was greater than 100 µM and the TGI [53] was greater than 100 µM. The TGI [59] was 39.8 µM.

— PubChem BioAssay (NCI)
